Laboratory results taken from patent US20130296311A1, “INHIBITORS OF HCV NS5A” (PRESIDIO PHARMACEUTICALS, INC., priority 2010, published 2013).
pEC50: −log10 of the molar value.

Each compound was assayed on HCV 1b_Huh-Luc/Neo-ET cell line persistently expressing a bicistronic genotype 1b replicon in Huh 7 cells (assay: HCV replicon assay (luciferase readout, 72 h)). Conditions: Hepatitis C virus, Huh-7, 72 h, read-out: Inhibition of HCV.
Assay type: cell-based, HCV genotype 1b
In short: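 Huh 7 cells carrying a bicistronic genotype 1b luciferase/neo replicon received compound in triplicate the day after plating. After 72 h, replicon levels were read as Bright-Glo luciferase activity, expressed as % of control; EC50 was fitted with a four-parameter logistic and determined several times.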

SMILES | pEC50
COC(=O)N[C@@H](C(=O)N1CCC[C@H]1c1nc2ccc(C#Cc3ccc4nc([C@@H]5CCCN5C(=O)[C@H](NC(=O)OC)C(C)C)[nH]c4c3)cc2[nH]1)C(C)C [Compound 853] | > 9.00

Same assay, conditions: Hepatitis C virus, Huh-7, 72 h, read-out: Inhibition of HCV genotype 1b

SMILES | pEC50
CC[C@@H](C)[C@H](NC(=O)OC)C(=O)N1CCC[C@H]1c1ncc(-c2ccc(C#Cc3ccc4nc([C@@H]5CCCN5C(=O)[C@@H](NC(=O)OC)[C@H](C)CC)[nH]c4c3)cc2)[nH]1 [Compound 1024] | > 9.00
COC(=O)N[C@H](C(=O)N1CCC[C@H]1c1ncc(-c2ccc(C#Cc3ccc(-c4cnc([C@@H]5CCCN5C(=O)[C@H](NC(=O)OC)c5ccccc5)[nH]4)cc3)cc2)[nH]1)C(C)C [Compound 1002] | > 9.00
CC(C)[C@H](NC(=O)N1CCC(C)(O)CC1)C(=O)N1CCC[C@H]1c1ncc(-c2ccc(C#Cc3ccc(-c4cnc([C@@H]5CCCN5C(=O)[C@@H](NC(=O)N5CCC(C)(O)CC5)C(C)C)[nH]4)cc3)cc2)[nH]1 [Compound 966] | 6.00 to 8.00
COC(=O)N[C@H](C(=O)N1CCC[C@H]1c1nc2ccc(C#Cc3ccc(-c4cnc([C@@H]5CCCN5C(=O)[C@@H](C(C)C)N(C)C)[nH]4)cc3)cc2[nH]1)C(C)C [Compound 865] | > 9.00
COC(=O)N[C@@H](C(=O)N1CCC[C@H]1c1ncc(-c2ccc(C#Cc3ccc(-c4cnc([C@@H]5CCCN5C(=O)[C@H](NC(=O)OC)c5ccccc5)[nH]4)c(F)c3)cc2)[nH]1)c1ccccc1 [Compound 1013] | > 9.00
CC(C)[C@@H](C(=O)N1CCC[C@H]1c1ncc(-c2ccc(C#Cc3ccc(-c4cnc([C@@H]5CCCN5C(=O)[C@H](C(C)C)N5CCOC5=O)[nH]4)cc3)cc2)[nH]1)N1CCOC1=O [Compound 1006] | 6.00 to 8.00
CC(C)(C)OC(=O)N[C@@H](C(=O)N1CCC[C@H]1CNC(=O)c1ccc(C#Cc2ccc(-c3cnc([C@@H]4CCCN4C(=O)[C@H](NC(=O)OC(C)(C)C)c4ccccc4)[nH]3)cc2)cc1)c1ccccc1 [Compound 192] | 8.00 to 9.00
COC(=O)N[C@@H](C(=O)N1CCC[C@H]1c1ncc(-c2ccc(C#Cc3ccc(-c4cnc([C@@H]5CCCN5C(=O)[C@@H]5CCCO5)[nH]4)cc3)cc2)[nH]1)c1ccccc1 [Compound 186] | > 9.00
CC(C)[C@H](NC(=O)N1CC[C@H](O)C1)C(=O)N1CCC[C@H]1c1ncc(-c2ccc(C#Cc3ccc(-c4cnc([C@@H]5CCCN5C(=O)[C@@H](NC(=O)N5CC[C@H](O)C5)C(C)C)[nH]4)cc3)cc2)[nH]1 [Compound 988] | 6.00 to 8.00
O=C(N[C@@H](C(=O)N1CCC[C@H]1c1ncc(-c2ccc(C#Cc3ccc(-c4cnc([C@@H]5CCCN5C(=O)[C@H](NC(=O)C5CC5)c5ccccc5)[nH]4)cc3)cc2)[nH]1)c1ccccc1)C1CC1 [Compound 153] | > 9.00
COC(=O)N[C@H](C(=O)N1CCC[C@H]1c1ncc(-c2ccc(C#Cc3ccc4nc([C@@H]5CCCN5C(=O)[C@H](NC(=O)OC)C(C)C)[nH]c4c3)cc2)[nH]1)C(C)C [Compound 1054] | > 9.00
CN(C)C(=O)N[C@@H](C(=O)N1CCC[C@H]1c1cc(-c2ccc(C#Cc3ccc(-c4cnc([C@@H]5CCCN5C(=O)[C@H](NC(=O)N(C)C)c5ccccc5)[nH]4)cc3)cc2)n[nH]1)c1ccccc1 [Compound 221] | > 9.00
COC(=O)N[C@H](C(=O)N1CCC[C@H]1c1nc2c([nH]1)-c1ccc(C#Cc3ccc4nc([C@@H]5CCCN5C(=O)[C@H](NC(=O)OC)c5ccccc5)[nH]c4c3)cc1CC2)C(C)C [Compound 1103] | > 9.00
COC(=O)N[C@@H](C(=O)N1CCC[C@H]1c1ncc(-c2ccc(C#Cc3ccc(-c4cnc([C@@H]5CCCN5C(=O)[C@H](NC(=O)N5CCC[C@@H]5CO)c5ccccc5)[nH]4)cc3)cc2)[nH]1)c1ccccc1 [Compound 254] | > 9.00
COC(=O)N[C@@H](C(=O)N1CCC[C@H]1c1ncc(-c2ccc(C#Cc3ccc(-c4cnc([C@@H]5CCCN5C(=O)[C@H](NC(=O)N5CC[C@@H](O)C5)c5ccccc5)[nH]4)cc3)cc2)[nH]1)c1ccccc1 [Compound 268] | > 9.00
CC(C)[C@H](NC(=O)N1CCOCC1)C(=O)N1CCC[C@H]1c1ncc(-c2ccc(C#Cc3ccc(-c4cnc([C@@H]5CCCN5C(=O)[C@@H](NC(=O)N5CCOCC5)C(C)C)[nH]4)cc3)cc2)[nH]1 [Compound 285] | < 6.00
O=C(N[C@@H](C(=O)N1CCC[C@H]1c1ncc(C#Cc2ccc(C#Cc3cnc([C@@H]4CCCN4C(=O)[C@H](NC(=O)N4CCOCC4)c4ccccc4)[nH]3)cc2)[nH]1)c1ccccc1)N1CCOCC1 [Compound 309] | > 9.00

SMILES | pEC50
COC(=O)N[C@@H](C(=O)N1CCC[C@H]1c1ncc(-c2ccc3nc(C#Cc4ccc5nc([C@@H]6CCCN6C(=O)[C@H](NC(=O)OC)c6ccccc6)[nH]c5c4)ccc3c2)[nH]1)c1ccccc1 [Compound 1109] | > 9.00
COC(=O)N[C@H](C(=O)N1CCC[C@H]1c1ncc(-c2ccc(C#Cc3ccc(-c4cnc([C@@H]5CCCN5C(=O)[C@@H](c5ccccc5)N5CCCC5)[nH]4)cc3)cc2)[nH]1)C(C)C [Compound 984] | > 9.00
COC(=O)N[C@H](C(=O)N1CCC[C@H]1c1ncc(-c2ccc(C#Cc3ccc(-c4cnc([C@@H]5CCCN5C(=O)[C@@H](NC(=O)OC)[C@@H](C)O)[nH]4)cc3)cc2)[nH]1)C(C)C [Compound 971] | > 9.00
COC(=O)N[C@@H](C(=O)N1CCC[C@H]1c1ncc(-c2ccc(C#Cc3ccc4nc([C@@H]5CCCN5C(=O)[C@H](NC(=O)OC)c5ccccc5)[nH]c4c3)cc2)[nH]1)c1ccccc1 [Compound 800] | > 9.00
COC(=O)N[C@@H](C(=O)N1CCC[C@H]1c1ncc(-c2ccc(C#Cc3ccc4nc([C@@H]5CCCN5C(=O)[C@H](NC(=O)OC)C(C)C)[nH]c4c3)cc2)[nH]1)C(C)C [Compound 861] | 6.00 to 8.00
COC(=O)N[C@@H](C(=O)N1CCC[C@H]1c1ncc(-c2ccc(C#Cc3ccc(-c4cnc([C@@H]5CCCN5C(=O)[C@H](NC(=O)[C@H]5CCCN5C)c5ccccc5)[nH]4)cc3)cc2)[nH]1)c1ccccc1 [Compound 204] | > 9.00
CC(C)[C@H](NC(=O)N1CCCC1)C(=O)N1CCC[C@H]1c1ncc(-c2ccc(C#Cc3ccc(-c4cnc([C@@H]5CCCN5C(=O)[C@@H](NC(=O)N5CCCC5)C(C)C)[nH]4)cc3)cc2)[nH]1 [Compound 288] | < 6.00
COC(=O)N[C@@H](Cc1cnc[nH]1)C(=O)N1CCC[C@H]1c1ncc(-c2ccc(C#Cc3ccc4nc([C@@H]5CCCN5C(=O)[C@H](Cc5cnc[nH]5)NC(=O)OC)[nH]c4c3)cc2)[nH]1 [Compound 1048] | 8.00 to 9.00
COC(=O)N[C@H](C(=O)N1CCC[C@H]1c1ncc(-c2ccc(C#Cc3ccc(-c4cnc([C@@H]5CCCN5C(=O)[C@@H](NC(=O)OC)C(C)(C)O)[nH]4)cc3)cc2)[nH]1)C(C)C [Compound 994] | > 9.00
COC(=O)N[C@H](C(=O)N1CCC[C@H]1c1ncc(C#Cc2ccc(-c3cnc([C@@H]4CCCN4C(=O)[C@@H](NC(=O)OC)C(C)C)[nH]3)cc2)[nH]1)C(C)C [Compound 134] | > 9.00
COC(=O)N1CCC[C@H]1C(=O)N1CCC[C@H]1c1ncc(-c2ccc(C#Cc3ccc4nc([C@@H]5CCCN5C(=O)[C@@H]5CCCN5C(=O)OC)[nH]c4c3)cc2)[nH]1 [Compound 1063] | 6.00 to 8.00
CN1CCN(C(=O)N[C@@H](C(=O)N2CCC[C@H]2c2ncc(-c3ccc(C#Cc4ccc(-c5cnc([C@@H]6CCCN6C(=O)[C@H](NC(=O)N6CCN(C)CC6)c6ccccc6)[nH]5)cc4)cc3)[nH]2)c2ccccc2)CC1 [Compound 159] | > 9.00
C[C@H](NC(=O)[C@H](NC(=O)OC(C)(C)C)c1ccccc1)c1ncc(-c2ccc(C#Cc3ccc(-c4cnc([C@@H]5CCCN5C(=O)[C@H](NC(=O)OC(C)(C)C)c5ccccc5)[nH]4)cc3)cc2)[nH]1 [Compound 280] | > 9.00
C[C@@H](c1ncc(-c2ccc(C#Cc3ccc(-c4cnc([C@@H]5CCCN5C(=O)[C@H](NC(=O)OC(C)(C)C)c5ccccc5)[nH]4)cc3)cc2)[nH]1)N(C)C(=O)[C@H](NC(=O)OC(C)(C)C)c1ccccc1 [Compound 265] | > 9.00
CC(C)(C)OC(=O)N[C@@H](C(=O)N1CCC[C@H]1c1ncc(-c2ccc(C#Cc3ccc4nc([C@@H]5CCCN5C(=O)[C@H](NC(=O)OC(C)(C)C)c5ccccc5)[nH]c4c3)cc2)[nH]1)c1ccccc1 [Compound 801] | > 9.00
COC(=O)N[C@@H](C(=O)N1CCC[C@H]1c1ncc(-c2ccc(C#Cc3ccc(-c4cnc([C@@H]5CCCN5C(=O)[C@H](NC(=O)N5CCS(=O)(=O)CC5)c5ccccc5)[nH]4)cc3)cc2)[nH]1)c1ccccc1 [Compound 253] | > 9.00
CC(C)OC(=O)N[C@@H](C(=O)N1CCC[C@H]1c1ncc(-c2ccc(C#Cc3ccc(-c4cnc([C@@H]5CCCN5C(=O)[C@H](NC(=O)OC(C)C)c5ccccc5)[nH]4)cc3)cc2)[nH]1)c1ccccc1 [Compound 227] | > 9.00

Same assay, conditions: Hepatitis C virus, Huh-7, read-out: Inhibition of HCV genotype 1b

SMILES | pEC50
COC(=O)N[C@H](C(=O)N1CCC[C@H]1c1ncc(-c2ccc(C#Cc3ccc(-c4cnc([C@@H]5CN(C(=O)OC)CCN5C(=O)[C@@H](NC(=O)OC)C(C)C)[nH]4)cc3)cc2)[nH]1)C(C)C [Compound 1204] | > 9.00
COC(=O)N[C@H](C(=O)N1CCC[C@H]1c1nc(C(F)(F)F)c(C#Cc2ccc3cc(-c4cnc([C@@H]5CCCN5C(=O)[C@@H](NC(=O)OC)[C@@H](C)OC)[nH]4)ccc3c2)[nH]1)C1CCCC1 [Compound 1263] | > 9.00
COC(=O)N[C@H](C(=O)N1CCC[C@H]1c1nc2c([nH]1)-c1ccc(C#Cc3ccc4nc([C@@H]5CCCN5C(=O)[C@@H](NC(=O)OC)C(C)C)[nH]c4c3)cc1CCC2)C(C)C [Compound 1279] | > 9.00
COC(=O)N[C@H](C(=O)N1CCN(C(C)=O)C[C@H]1c1ncc(-c2ccc(C#Cc3ccc4nc([C@@H]5CCCN5C(=O)[C@@H](NC(=O)OC)C5CCOCC5)[nH]c4c3)cc2)[nH]1)C1CCOCC1 [Compound 1234] | 8.00 to 9.00
CCN(CC)C(=O)c1cc(-c2cnc([C@@H]3CCCN3C(=O)[C@@H](NC(=O)OC)C(C)C)[nH]2)ccc1C#Cc1ccc(-c2cnc([C@@H]3CCCN3C(=O)[C@@H](NC(=O)OC)C(C)C)[nH]2)cc1 [Compound 1209] | > 9.00
